{"source": "patent US9469615B2", "about": "“Quinoxalines and AZA-quinoxalines as CRTH2 receptor modulators” (Merck Sharp & Dohme Corp., priority 2010, dated 2016)", "data": [{"molecular_target": "T1, hCRTH2 (Homo sapiens, UniProt Q9Y5Y4)", "T1 construct": "expressed in transfected cells; host or cells: HEK (human embryonic kidney) cells expressing hCRTH2; membrane preparation", "T1 sequence (Q9Y5Y4 1-395)": "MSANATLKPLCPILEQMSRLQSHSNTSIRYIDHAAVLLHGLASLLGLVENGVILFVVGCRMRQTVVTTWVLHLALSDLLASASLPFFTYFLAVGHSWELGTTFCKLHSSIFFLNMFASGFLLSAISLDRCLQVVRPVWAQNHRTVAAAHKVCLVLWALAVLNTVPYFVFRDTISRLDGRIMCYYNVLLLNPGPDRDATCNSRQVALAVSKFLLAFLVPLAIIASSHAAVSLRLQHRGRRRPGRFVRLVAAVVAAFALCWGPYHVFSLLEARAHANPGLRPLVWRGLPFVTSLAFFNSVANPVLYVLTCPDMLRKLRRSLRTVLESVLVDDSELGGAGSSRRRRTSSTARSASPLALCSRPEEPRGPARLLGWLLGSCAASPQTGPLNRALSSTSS", "test": "Radioligand binding assay ([3H]PGD2 competition, HEK-hCRTH2 membranes)", "conditions": "[3H]PGD2 competition, Table B", "in_short": "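Competition against 3.0 nM [3H]PGD2 was run for 60 min at room temperature in pH 7.4 Tris-HCl buffer with EDTA, 2 mM MnCl2 and 1% DMSO, using 8-20 μg HEK-hCRTH2 membrane protein. 10 μM PGD2 set non-specific binding; filter-bound counts were read by scintillation.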", "units": {"Ki": "nM"}, "values": [{"smiles": "CN(Cc1ccc(F)cc1)C(=O)c1ccc2nc(-c3ccc(Cl)cc3)c(CCc3cc(F)cc(CC(=O)O)c3)nc2c1", "note": "[compound 447, 2-(3-(2-(3-(4-chlorophenyl)-7-((4-fluorobenzyl)(methyl)carbamoyl)quinoxalin-2-yl)ethyl)-5-fluorophenyl)acetic acid]", "Ki": "0.1 to 2"}, {"smiles": "CN(Cc1ccccc1)C(=O)c1ccc2nc(-c3ccc(Cl)cc3)c(CCc3cc(F)cc(CC(=O)O)c3)nc2c1", "note": "[compound 448, 2-(3-(2-(7-(benzyl(methyl)carbamoyl)-3-(4-chlorophenyl)quinoxalin-2-yl)ethyl)-5-fluorophenyl) acetic acid]", "Ki": "0.1 to 2"}, {"smiles": "C[C@@H](NC(=O)c1ccc2nc(-c3ccc(Cl)cc3)c(CCc3cc(F)cc(CC(=O)O)c3)nc2c1)c1ccc(F)cc1", "note": "[compound 449]", "Ki": "2.1 to 20"}, {"smiles": "C[C@H](NC(=O)c1ccc2nc(-c3ccc(Cl)cc3)c(CCc3cc(F)cc(CC(=O)O)c3)nc2c1)c1ccc(F)cc1", "note": "[compound 450, (S)-2-(3-(2-(3-(4-chlorophenyl)-7-((1-(4-fluorophenyl)ethyl)carbamoyl)quinoxalin-2-yl)ethyl)-5-fluorophenyl)acetic acid]", "Ki": "2.1 to 20"}, {"smiles": "N#Cc1ccc(CNC(=O)c2ccc3nc(-c4ccc(Cl)cc4)c(CCc4cc(F)cc(CC(=O)O)c4)nc3c2)cc1", "note": "[compound 451, 2-(3-(2-(3-(4-chlorophenyl)-7-((4-cyanobenzyl)carbamoyl)quinoxalin-2-yl)ethyl)-5-fluorophenyl)acetio acid]", "Ki": "2.1 to 20"}, {"smiles": "O=C(O)Cc1cc(F)cc(CCc2nc3cc(C(=O)N4CC(c5ccc(F)c(F)c5)C4)ccc3nc2-c2ccc(Cl)cc2)c1", "note": "[compound 452, 2-(3-(2-(3-(4-chlorophenyl)-7-(3-(3,4-difluorophenyl)azetidine-l-carbonyl)quinoxalin-2-yl)ethyl)-5-fluorophenyl) aceticacid]", "Ki": "2.1 to 20"}, {"smiles": "CC(CCCc1nc2cc(C(=O)N[C@@H]3CCCc4ccccc43)ccc2nc1-c1ccccc1)C(=O)O", "note": "(stereo partly drawn) [compound 453, 2-methyl-5-(3-phenyl-7-(((R)-1-yl)carbamoyl)quinoxalin-2-yl)pentanoic acid]", "Ki": "2.1 to 20"}, {"smiles": "CC(CCCc1nc2cc(C(=O)N[C@@H]3CCCc4ccccc43)ccc2nc1-c1ccc(F)cc1)C(=O)O", "note": "(stereo partly shown) [compound 454]", "Ki": "2.1 to 20"}, {"smiles": "CC(CCCc1nc2cc(C(=O)N[C@@H]3CCCc4cc(Cl)ccc43)ccc2nc1-c1ccc(F)cc1)C(=O)O", "note": "(stereo partly drawn) [compound 455, 5-(7-(((R)-6-chloro-1,2,3,4-tetrahydronaphthalen-1-yl)carbamoyl)-3-(4-fluorophenyl)quinoxalin-2-yl)-2-methylpentanoic acid]", "Ki": "2.1 to 20"}, {"smiles": "CC(CCCc1nc2cc(C(=O)N[C@@H]3CCc4cc(Cl)ccc43)ccc2nc1-c1ccc(F)cc1)C(=O)O", "note": "(stereo partly drawn) [compound 456, 5-(7-(((R)-5-chloro-2,3-dihydro-1H-inden-1-yl)carbamoyl)-3-(4-fluorophenyl)quinoxalin-2-yl)-2-methylpentanoic acid]", "Ki": "2.1 to 20"}, {"smiles": "CC(CCCc1nc2cc(C(=O)N[C@@H]3CCc4cc(F)ccc43)ccc2nc1-c1ccc(F)cc1)C(=O)O", "note": "(stereo partly drawn) [compound 457, 5-(7-(((R)-5-fluoro-2,3-dihydro-1H-inden-1-yl)carbamoyl)-3-(4-fluorophenyl)quinoxalin-2-yl)-2-methylpentanoic acid]", "Ki": "0.1 to 2"}, {"smiles": "CC(CCCc1nc2cc(C(=O)N[C@@H]3CCCc4cc(Cl)ccc43)ccc2nc1-c1ccccc1)C(=O)O", "note": "(stereo partly drawn) [compound 458, 5-(7-(((R)-6-chloro-1,2,3,4-tetrahydronaphthalen-1-yl)carbamoyl)-3-phenylquinoxalin-2-yl)-2-methylpentanoic acid]", "Ki": "2.1 to 20"}, {"smiles": "CC(CCCc1nc2cc(C(=O)N[C@@H]3CCCc4cc(F)ccc43)ccc2nc1-c1ccccc1)C(=O)O", "note": "(stereo partly drawn) [compound 459, 5-(7-(((R)-6-fluoro-1,2,3,4-tetrahydronaphthalen-1-yl)carbamoyl)-3-phenylquinoxalin-2-yl)-2-methylpentanoic acid]", "Ki": "2.1 to 20"}, {"smiles": "CC(CCCc1nc2cc(C(=O)N[C@H](C)c3ccc(Cl)cc3)ccc2nc1-c1ccccc1)C(=O)O", "note": "(stereo partly drawn) [compound 460, 5-(7-(((R)-1-(4-chlorophenyl)ethyl)carbamoyl)-3-3-phenylquinoxalin-2-yl)-2-methylpentanoic acid]", "Ki": "2.1 to 20"}, {"smiles": "CC(CCCc1nc2cc(C(=O)N[C@H](C)c3ccc(F)cc3)ccc2nc1-c1ccccc1)C(=O)O", "note": "(stereo partly drawn) [compound 461, 5-(7-(((R)-1-(4-fluorophenyl)ethyl)carbamoyl)-3-phenylquinoxalin-2-yl)-2-methylpentanoic acid]", "Ki": "2.1 to 20"}, {"smiles": "CC(CCCc1nc2cc(C(=O)N3CCN(c4ccccc4)CC3)ccc2nc1-c1ccccc1)C(=O)O", "note": "(stereo not shown) [compound 462, 2-methyl-5-(3-phenyl-7-(4-phenylpiperazine-1-carbonyl)quinoxalin-2-yl)pentanoic acid]", "Ki": "2.1 to 20"}, {"smiles": "CC(CCCc1nc2cc(C(=O)N[C@@H]3C[C@H]3c3ccccc3)ccc2nc1-c1ccccc1)C(=O)O", "note": "(stereo partly drawn) [compound 463, 2-methyl-5-(3-phenyl-7-(((1R,2S)-2-phenylcyclopropyl)carbamoyl)quinoxalin-2-yl) pentanoic acid]", "Ki": "2.1 to 20"}, {"smiles": "C[C@@H](NC(=O)c1ccc2nc(-c3ccccc3)c(CCCC(F)(F)C(=O)O)nc2c1)c1ccc(Cl)cc1", "note": "[compound 464, (R)-5-(7-((1-(4-chlorophenyl)ethyl)carbamoyl)-3-phenylquinoxalin-2-yl)-2,2-difluoropentanoic acid]", "Ki": "20.1 to 200"}, {"smiles": "O=C(N[C@@H]1CCCc2cc(F)ccc21)c1ccc2nc(-c3ccc(F)cc3)c(CCCC(F)(F)C(=O)O)nc2c1", "note": "[compound 465, (R)-2,2-difluoro-5-(7-((6-fluoro-1,2,3,4-tetrabydronaphthalen-1-yl)carbamoyl)-3-(4-fluorophenyl)quinoxalin-2-yl)pentanoic acid]", "Ki": "2.1 to 20"}, {"smiles": "O=C(N[C@@H]1CCCc2ccccc21)c1ccc2nc(-c3ccccc3)c(CCCC(F)(F)C(=O)O)nc2c1", "note": "[compound 466, (R)-2,2-difluoro-5-(3-phenyl-7-((1,2,3,4-tetahydronaphthalen-1-yl)carbamoyl)quinoxalin-2-yl)pentanoic acid]", "Ki": "2.1 to 20"}, {"smiles": "O=C(N[C@@H]1CCCc2cc(Cl)ccc21)c1ccc2nc(-c3ccccc3)c(CCCC(F)(F)C(=O)O)nc2c1", "note": "[compound 467, (R)-5-(7-((6-chloro-1,2,3,4-tetrahydronaphthalen-1-yl)carbamoyl)-3-phenylquinoxalin-2-yl)-2,2-difluoropentanoic acid]", "Ki": "2.1 to 20"}, {"smiles": "O=C(N[C@@H]1CCc2cc(F)ccc21)c1ccc2nc(-c3ccccc3)c(CCCC(F)(F)C(=O)O)nc2c1", "note": "[compound 468, (R)-2,2-difluoro-5-(7-((5-fluoro-2,3-dihydro-1H-inden-1-yl)carbamoyl)-3-phenylquinoxalin-2-yl)pentanoic acid]", "Ki": "2.1 to 20"}, {"smiles": "O=C(N[C@H](c1ccc(F)cc1)C(F)(F)F)c1ccc2nc(-c3ccccc3)c(CCCC(F)(F)C(=O)O)nc2c1", "note": "[compound 469, (R)-2,2-difluoro-5-(3-phenyl-7-((2,2,2-trifluoro-1-(4-fluorophenyl)ethyl)carbamoyl)quinoxalin-2-yl)pentanoic acid]", "Ki": "201 to 700"}, {"smiles": "O=C(c1ccc2nc(-c3ccccc3)c(CCCC(F)(F)C(=O)O)nc2c1)N1CCN(c2ccccc2)CC1", "note": "[compound 470, 2,2-difluoro-5-(3-phenyl-7-(4-phenylpiperazine-1-carbonyl)quinoxalin-2-yl)pentanoic acid]", "Ki": "20.1 to 200"}, {"smiles": "C[C@@H](NC(=O)c1ccc2nc(-c3ccc(F)cc3)c(CCCCC(=O)O)nc2c1)c1ccc(F)cn1", "note": "[compound 471, (R)-5-(3-(4-fluorophenyl)-7-((1-(5-fluoropyridin-2-yl)ethyl)carbamoyl)quinoxalin-2-yl)pentanoic acid]", "Ki": "2.1 to 20"}, {"smiles": "C[C@H](NC(=O)c1ccc2nc(-c3ccc(F)cc3)c(CCCCC(=O)O)nc2c1)c1ccc(F)cn1", "note": "[compound 472, (S)-5-(3-(4-fluorophenyl)-7-((1-(5-fluoropyridin-2-yl)ethyl)carbamoyl)quinoxalin-2-yl)pentanoic acid]", "Ki": "20.1 to 200"}, {"smiles": "C[C@@H](NC(=O)c1ccc2nc(-c3ccccc3)c(CCCCC(=O)O)nc2c1)c1ccc(F)cn1", "note": "[compound 473, (R)-5-(7-((1-(5-fluoropyridin-2-yl)ethyl)carbamoyl)-3-phenylquinoxalin-2-yl)pentanoic acid]", "Ki": "2.1 to 20"}, {"smiles": "C[C@H](NC(=O)c1ccc2nc(-c3ccccc3)c(CCCCC(=O)O)nc2c1)c1ccc(F)cn1", "note": "[compound 474, (S)-5-(7-((1-(5-fluoropyridin-2-yl)ethyl)carbamoyl)-3-phenylquinoxalin-2-yl)pentanoic acid]", "Ki": "2.1 to 20"}, {"smiles": "O=C(N[C@@H]1CCCc2cc(Cl)ccc21)c1ccc2nc(-c3ccc(F)cc3)c(CCCC(F)(F)C(=O)O)nc2c1", "note": "[compound 475, (R)-5-(7-((6-chloro-1,2,3,4-tetrahydronaphthalen-1-yl)carbamoyl)-3-(4-fluorophenyl)quinoxalin-2-yl)-2,2-difluoropentanoic acid]", "Ki": "2.1 to 20"}, {"smiles": "O=C(N[C@@H]1CCc2cc(F)ccc21)c1ccc2nc(-c3ccc(F)cc3)c(CCCC(F)(F)C(=O)O)nc2c1", "note": "[compound 476, (R)-2,2-dilluoro-5-(7-((5-fluoro-2,3-dihydro-1H-inden-1-yl)carbamoyl)-3-(4-fluorophenyl)quinoxalin-2-yl)pentanoic acid]", "Ki": "20.1 to 200"}, {"smiles": "C[C@H](CCCc1nc2cc(C(=O)N[C@@H]3CCCc4ccccc43)ccc2nc1-c1ccc(F)cc1)C(=O)O", "note": "[compound 477, (R)-5-(3-(4-fluorophenyl)-7-(((R)-1,2,3,4-tetrahydronaphthalen-1-yl)carbamoyl)quinoxalin-2-yl)-2-methylpentanoic acid]", "Ki": "2.1 to 20"}]}]}
